Biological target: T1, human EP3 receptor (Homo sapiens, UniProt P43115)
T1 construct: expressed in transfected cells; host or cells: CHO K1 (Chinese Hamster Ovary), stably co-transfected with Galpha16 and mitochondrial clytin
T1 sequence (P43115 1-390): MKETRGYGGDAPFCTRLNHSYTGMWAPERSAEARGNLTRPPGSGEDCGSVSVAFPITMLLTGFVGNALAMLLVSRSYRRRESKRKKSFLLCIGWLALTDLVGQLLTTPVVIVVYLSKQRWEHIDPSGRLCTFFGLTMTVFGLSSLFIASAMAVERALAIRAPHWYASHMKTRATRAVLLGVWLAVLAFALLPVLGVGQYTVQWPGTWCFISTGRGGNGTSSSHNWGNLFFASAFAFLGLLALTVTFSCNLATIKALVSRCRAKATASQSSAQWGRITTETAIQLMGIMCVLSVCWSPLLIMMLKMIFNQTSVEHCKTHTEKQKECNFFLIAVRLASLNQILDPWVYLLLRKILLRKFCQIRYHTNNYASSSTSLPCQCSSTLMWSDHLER
Test: Cellular in vitro assay for determining EP3 receptor activity (human EP3 cell line, sulprostone-stimulated calcium luminescence)
Assay type: cell-based
Settings: CHO cells expressing human EP3 and mitochondrial Clytin; antagonist mode, sulprostone at EC50; read-out: EP3 CHO mtCLY ANTAG IC50
In short: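 Antagonist activity was measured as inhibition of the luminescent calcium signal elicited by EC50 sulprostone, following 10 min compound pretreatment. The cell line was recombinant CHO K1 co-expressing human EP3, Gα16 and the photoprotein Clytin, reconstituted with coelenterazine.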

SMILES	IC50 [nM]
CC(C)C(NC(=O)c1cc2c(=O)[nH]c(-c3ccc4ccccc4c3)cn2n1)c1cccs1 (stereo not shown) [Example 2-38, N-[2-Methyl-1-(2-thienyl)propyl]-6-(2-naphthyl)-4-oxo-4,5-dihydropyrazolo[1,5-a]pyrazine-2-carboxamide]	2.05
CC(NC(=O)c1nn2cc(-c3ccc4ccccc4c3)[nH]c(=O)c2c1C#N)c1ccc(Cl)cc1Cl (stereo not shown) [Example 3-58, 3-Cyano-N-[1-(2,4-dichlorophenyl)ethyl]-6-(2-naphthyl)-4-oxo-5H-pyrazolo[1,5-a]pyrazine-2-carboxamide]	2.35
CCn1cc(CNC(=O)c2nn3cc(-c4ccc5ccccc5c4)[nH]c(=O)c3c2Cl)c(C)n1 [6-10]	1.4
CN1CC(NC(=O)c2nn3cc(-c4ccc5ccccc5c4)[nH]c(=O)c3c2Cl)(c2ccc(F)cc2)C1 [Example 1-119, 3-Chloro-N-[3-(4-fluorophenyl)-1-methylazetidin-3-yl]-6-(naphthalen-2-yl)-4-oxo-4,5-dihydropyrazolo[1,5-a]pyrazine-2-carboxamide]	3.3
Cc1c(C(=O)N[C@H]2CCc3ccccc32)nn2c(C)c(-c3ccc4ccccc4c3)[nH]c(=O)c12 [Example 3-29, N-[(7S)-2,3-Dihydro-1H-inden-1-yl]-3,7-dimethyl-6-(naphthalen-2-yl)-4-oxo-4,5-dihydropyrazolo[1,5-a]pyrazine-2-carboxamide]	4.65
COc1ccc(C(C)NC(=O)c2cc3c(=O)[nH]c(-c4ccc(C)c(C)c4)cn3n2)cn1 (stereo not shown) [Example 5-4, 6-(3,4-Dimethylphenyl)-N-[1-(6-methoxypyridin-3-yl)ethyl]-4-oxo-4,5-dihydropyrazolo[1,5-a]pyrazine-2-carboxamide]	2.5
Cc1ccc(-c2cn3nc(C(=O)NC(CN(C)C)c4ccc(F)cc4)c(C4CC4)c3c(=O)[nH]2)cc1C (racemic) [6-444]	3.23
O=C(NCc1ncc(C(F)(F)F)cc1Cl)c1nn2cc(-c3ccc4ccccc4c3)[nH]c(=O)c2c1C(F)(F)F [6-8]	1.05
Cc1cccc2ncc(-c3cn4nc(C(=O)N[C@H](C)c5ccc(F)cc5)cc4c(=O)[nH]3)cc12 [6-64]	2.5
Cc1cc(-c2cn3nc(C(=O)NC4(c5ccc(F)cc5)CN(CC(F)(F)F)C4)c(C(F)(F)F)c3c(=O)[nH]2)ccc1Cl [6-237]	1.9
CCn1ccc(C(C)NC(=O)c2nn3cc(-c4cnc5cccc(C)c5c4)[nH]c(=O)c3c2C(C)C)n1 (stereo not shown) [Example 4-13, N-[1-(1-Ethylpyrazol-3-yl)ethyl]-3-isopropyl-6-(5-methyl-3-quinolyl)-4-oxo-5H-pyrazolo[1,5-a]pyrazine-2-carboxamide]	1.45
Cc1c(C(=O)NC(C)c2ccc(Cl)c(Cl)c2)nn2c(C)c(-c3ccc4ccccc4c3)[nH]c(=O)c12 (stereo not shown) [Example 3-16, N-[1-(3,4-Dichlorophenyl)ethyl]-3,7-dimethyl-6-(2-naphthyl)-4-oxo-5H-pyrazolo[1,5-a]pyrazine-2-carboxamide]	7.2
CC(NC(=O)c1cc2c(=O)[nH]c(-c3ccc4ccccc4c3)cn2n1)c1ccn(C)n1 (stereo not shown) [Example 2-49, N-[1-(1-Methyl-1H-pyrazol-3-yl)ethyl]-6-(2-naphthyl)-4-oxo-4,5-dihydropyrazolo[1,5-a]pyrazine-2-carboxamide]	8.6
Cc1ccc(-c2cn3nc(C(=O)NCC(N)C(F)(F)F)c(C(F)(F)F)c3c(=O)[nH]2)cc1C (racemic) [6-118]	5.6
Cc1cc(-c2cn3nc(C(=O)NC(c4ccc(F)cc4)C4(O)CC4)c(C4CC4)c3c(=O)[nH]2)ccc1F (single isomer, unassigned) [6-651]	1
Cc1nn(C(CNC(=O)c2cc3c(=O)[nH]c(-c4ccc5ccccc5c4)cn3n2)C(C)C)c(C)c1Cl (stereo not shown) [Example 2-20, N-[2-(4-Chloro-3,5-dimethyl-1H-pyrazol-1-yl)-3-methylbutyl]-6-(2-naphthyl)-4-oxo-4,5-dihydropyrazolo[1,5-a]pyrazine-2-carboxamide]	9.75
COc1ccc(C(C)NC(=O)c2cc3c(=O)[nH]c(-c4ccc5ccccc5n4)cn3n2)cn1 (stereo not shown) [Example 1-106, N-[1-(6-Methoxypyridin-3-yl)ethyl]-4-oxo-6-(quinolin-2-yl)-4,5-dihydropyrazolo[1,5-a]pyrazine-2-carboxamide]	5.65
COc1ccc(C2(NC(=O)c3cc4c(=O)[nH]c(-c5ccc6ccccc6c5)cn4n3)CN(C(=O)OC(C)(C)C)C2)cc1 [Example 1-57, tert.-Butyl 3-(4-methoxyphenyl)-3-({[6-(naphthalen-2-yl)-4-oxo-4,5-dihydropyrazolo[1,5-a]pyrazin-2-yl]carbonyl}amino)azetidine-1-carboxylate]	4.9
Cc1ccc(-c2cn3nc(C(=O)N[C@H](C)c4ccc(F)cc4)c(C#N)c3c(=O)[nH]2)cc1C [Example 1-73, 3-Cyano-6-(3,4-dimethylphenyl)-N-[(1R)-1-(4-fluorophenyl)ethyl]-4-oxo-4,5-dihydropyrazolo-[1,5-a]pyrazine-2-carboxamide]	1.3
Cc1ccc(-c2cn3nc(C(=O)NC4(c5ccc(F)cc5)CN(C)C4)c(C4CC4)c3c(=O)[nH]2)cc1Cl [6-262]	2.8
Cc1nn(C(C)CNC(=O)c2cc3c(=O)[nH]c(-c4ccc5ccccc5c4)cn3n2)c(C)c1Cl (stereo not shown) [Example 2-46, N-[2-(4-Chlor-3,5-dimethyl-1H-pyrazol-1-yl)propyl]-6-(2-naphthyl)-4-oxo-4,5-dihydropyrazolo[1,5-a]pyrazine-2-carboxamide]	2.95
Cc1ccc(-c2cn3nc(C(=O)N[C@@H](CO)C(F)(F)F)c(C4CC4)c3c(=O)[nH]2)cc1F [6-393]	0.85

SMILES	IC50 [nM]
Cc1ccc(-c2cn3nc(C(=O)NCC(C)(N)C(F)(F)F)c(C(F)(F)F)c3c(=O)[nH]2)cc1Cl (single isomer, unassigned) [6-171]	2.3
Cc1ccc(-c2cn3nc(C(=O)NC(CO)C(F)(F)F)c(C(F)(F)F)c3c(=O)[nH]2)cc1Cl (racemic) [6-161]	2.3
Cc1c(C(=O)NCC(C)Cn2cccn2)nn2c(C)c(-c3ccc4ccccc4c3)[nH]c(=O)c12 (stereo not shown) [Example 3-7, 3,7-Dimethyl-N-[2-methyl-3-(1H-pyrazol-1-yl)propyl]-6-(2-naphthyl)-4-oxo-4,5-dihydropyrazolo[1,5-a]pyrazine-2-carboxamide]	1.34
O=C(NC(c1ccc(F)cc1)C1(O)CC1)c1nn2cc(-c3ccc(Cl)c(F)c3)[nH]c(=O)c2c1C1CC1 (single isomer, unassigned) [6-97]	3.25
Cc1ccc(-c2cn3nc(C(=O)N[C@H](C)C(C)(C)C)c(C4CC4)c3c(=O)[nH]2)cc1Cl [6-281]	2.05
Cc1ccc(-c2cn3nc(C(=O)NC(CN4CCOCC4)c4ccc(F)cc4)c(C4CC4)c3c(=O)[nH]2)cc1C (racemic) [6-441]	1.45
O=C(NC1(c2ccc(F)cc2)CC1)c1cc2c(=O)[nH]c(-c3ccc4c(c3)OCCO4)cn2n1 [6-23]	3.1
Cc1cc(-c2cn3nc(C(=O)NC(C)C4CCC4)c(C4CC4)c3c(=O)[nH]2)ccc1Cl (single isomer, unassigned) [6-299]	4.4
O=C(N[C@H](CN1CC(F)C1)C1CC1)c1nn2cc(-c3ccc4ccccc4c3)[nH]c(=O)c2c1C(F)(F)F [6-513]	7.1
Cc1ccc(-c2cn3nc(C(=O)Nc4cccc(O)c4)c(C(F)(F)F)c3c(=O)[nH]2)cc1F [6-144]	3.5
Cc1ccc(-c2cn3nc(C(=O)NCC(O)C(F)(F)F)c(C)c3c(=O)[nH]2)cc1F (single isomer, unassigned) [6-411]	32.5
O=C(N[C@H](CN1CCOCC1)c1ccc(F)cc1)c1nn2cc(-c3ccc(Cl)c(F)c3)[nH]c(=O)c2c1C1CC1 [6-106]	0.61
C[C@H](NC(=O)c1nn2cc(-c3ccc(Cl)c(F)c3)[nH]c(=O)c2c1C1CCC1)C1CC1 [6-570]	1.3
COC[C@@H](NC(=O)c1nn2cc(-c3ccc4c(c3)ncn4C)[nH]c(=O)c2c1C1CC1)c1ccccc1 [6-600]	2.3
Cc1cccc2ncc(-c3cn4nc(C(=O)NC5(c6ccc(C#N)cc6)CC5)c(C(C)C)c4c(=O)[nH]3)cc12 [Example 4-3, N-[1-(4-Cyanophenyl)cyclopropyl]-6-(5-methylquinolin-3-yl)-4-oxo-3-(propan-2-yl)-4,5-dihydropyrazolo[1,5-a]pyrazine-2-carboxamide]	1.65
Cc1cc(-c2cn3nc(C(=O)N[C@H](CN4CCC(F)(F)C4)c4ccc(F)cc4)c(C4CC4)c3c(=O)[nH]2)ccc1Cl [6-339]	7.15
O=C(N[C@@H](c1ccc(F)cc1)C(F)(F)CO)c1nn2cc(-c3ccc(Cl)c(Cl)c3)[nH]c(=O)c2c1C1CC1 [6-421]	1.49
O=C(NCCc1ccccc1)c1cc2c(=O)[nH]c(-c3ccc4c(c3)OCCO4)cn2n1 [6-21]	5.35
CN(C)CC(NC(=O)c1nn2cc(-c3ccc4ccccc4c3)[nH]c(=O)c2c1C(F)(F)F)c1ccc(F)cc1 (racemic) [6-506]	5.45
CCCN1CC(NC(=O)c2nn3cc(-c4ccc5ccccc5c4)[nH]c(=O)c3c2C(F)(F)F)(c2ccc(F)cc2)C1 [Example 1-127, N-[3-(4-Fluorophenyl)-1-propylazetidin-3-yl]-6-(naphthalen-2-yl)-4-oxo-3-(trifluoromethyl)-4,5-dihydropyrazolo[1,5-a]pyrazine-2-carboxamide]	2.15
COC[C@@H](C)NC(=O)c1nn2cc(-c3ccc(C(F)(F)F)c(C)c3)[nH]c(=O)c2c1C1CC1 [6-136]	7.5
